Measurements: PubChem BioAssay (NCI)
Values joined by “and” are separate entries in the source; they are usually repeats but may differ in a detail not shown here. Equal values may be shown once.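 In this assay, cells in 96-well plates receive the compound at five concentrations for 48 hours. Endpoints are linearly interpolated between the surrounding concentrations. GI50 is the concentration that inhibits growth by half. At the TGI there is no net growth.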

Legend:
Assay in all cases: NCI tumour cell line growth inhibition, 48 h
MOLT-4 leukemia = system: MOLT-4 leukemia
A549 NSCLC = system: A549 NSCLC
OVCAR-4 ovarian = system: OVCAR-4 ovarian
M14 melanoma = system: M14 melanoma
SF-539 CNS = system: SF-539 CNS
SW-620 colon = system: SW-620 colon
PC-3 prostate = system: PC-3 prostate
U251 CNS = system: U251 CNS
HOP-92 NSCLC = system: HOP-92 NSCLC
DU-145 prostate = system: DU-145 prostate
BT-549 breast = system: BT-549 breast
CAKI-1 renal = system: CAKI-1 renal
KM20L2 colon = system: KM20L2 colon

CC(=O)Nc1ccc(Sc2nnc(NC(C)=O)s2)cc1
TGI (MOLT-4 leukemia): > 100 µM | TGI (A549 NSCLC): > 100 µM | TGI (OVCAR-4 ovarian): > 100 µM | TGI (M14 melanoma): > 100 µM | TGI (SF-539 CNS): > 100 µM | TGI (SW-620 colon): > 100 µM | TGI (PC-3 prostate): > 100 µM | TGI (U251 CNS): > 100 µM

O=[N+]([O-])c1cccc(N=Nc2c(O)ccc3ccccc23)c1
TGI (MOLT-4 leukemia): > 100 µM | TGI (A549 NSCLC): > 100 µM | TGI (HOP-92 NSCLC): > 100 µM | TGI (OVCAR-4 ovarian): > 100 µM | TGI (DU-145 prostate): > 100 µM | TGI (M14 melanoma): > 100 µM | TGI (BT-549 breast): > 100 µM | TGI (SW-620 colon): > 100 µM | TGI (PC-3 prostate): > 100 µM | TGI (U251 CNS): > 100 µM | TGI (CAKI-1 renal): > 100 µM

COc1cc(C=O)cc(O)c1O
TGI (MOLT-4 leukemia): > 100 µM | TGI (A549 NSCLC): > 100 µM | TGI (M14 melanoma): > 100 µM | TGI (SF-539 CNS): > 100 µM | TGI (SW-620 colon): > 100 µM | TGI (KM20L2 colon): > 100 µM | TGI (U251 CNS): > 100 µM

O=C1c2ccccc2C(=O)N1CC(CN1C(=O)c2ccccc2C1=O)(C(=O)OCc1ccccc1)C(=O)OCc1ccccc1
TGI (MOLT-4 leukemia): > 100 µM | TGI (HOP-92 NSCLC): > 100 µM | TGI (DU-145 prostate): > 100 µM | TGI (M14 melanoma): > 100 µM | TGI (BT-549 breast): > 100 µM | TGI (PC-3 prostate): > 100 µM | TGI (U251 CNS): > 100 µM | TGI (CAKI-1 renal): > 100 µM

O=c1oc2ccc([N+](=O)[O-])cc2cc1Br
TGI (MOLT-4 leukemia): > 100 µM | TGI (A549 NSCLC): > 100 µM | TGI (HOP-92 NSCLC): > 100 µM | TGI (OVCAR-4 ovarian): > 100 µM | TGI (DU-145 prostate): > 100 µM | TGI (M14 melanoma): > 100 µM | TGI (BT-549 breast): > 100 µM | TGI (SF-539 CNS): > 100 µM | TGI (SW-620 colon): > 100 µM | TGI (PC-3 prostate): > 100 µM | TGI (U251 CNS): > 100 µM | TGI (CAKI-1 renal): > 100 µM

Cn1c(=O)c(Cl)c(N=[N+]=[N-])c2ccccc21
TGI (MOLT-4 leukemia): > 100 µM | TGI (A549 NSCLC): > 100 µM | TGI (HOP-92 NSCLC): > 100 µM | TGI (OVCAR-4 ovarian): > 100 µM | TGI (DU-145 prostate): > 100 µM | TGI (SF-539 CNS): > 100 µM | TGI (SW-620 colon): > 100 µM | TGI (PC-3 prostate): > 100 µM | TGI (U251 CNS): > 100 µM | TGI (CAKI-1 renal): > 100 µM

O=[N+]([O-])C(=C/c1cccs1)/C(=C\c1cccs1)[N+](=O)[O-]
TGI (MOLT-4 leukemia): 1.3 µM | TGI (A549 NSCLC): 9.59 µM | TGI (HOP-92 NSCLC): 3.28 µM | TGI (OVCAR-4 ovarian): 7.41 µM | TGI (DU-145 prostate): 3.53 µM | TGI (M14 melanoma): 6.88 µM | TGI (BT-549 breast): 4.27 µM | TGI (SF-539 CNS): 0.417 µM | TGI (SW-620 colon): 21.2 µM | TGI (CAKI-1 renal): 1.41 µM

C=CCCCCCCCCC(=O)O
TGI (MOLT-4 leukemia): 265 µM | TGI (A549 NSCLC): 214 µM | TGI (HOP-92 NSCLC): 199 µM | TGI (OVCAR-4 ovarian): 341 µM | TGI (SF-539 CNS): 212 µM | TGI (SW-620 colon): 260 µM | TGI (KM20L2 colon): 268 µM | TGI (U251 CNS): 242 µM | TGI (CAKI-1 renal): 214 µM

CCOC(=O)C(OP(=O)(OCC)OCC)C(F)(F)F (stereo not drawn)
TGI (MOLT-4 leukemia): > 100 µM | TGI (DU-145 prostate): > 100 µM | TGI (M14 melanoma): > 100 µM | TGI (BT-549 breast): > 100 µM | TGI (SF-539 CNS): > 100 µM | TGI (U251 CNS): > 100 µM

COc1cccc2c1C(=O)c1c(O)c3c(c(O)c1C2=O)C[C@@](O)(C(=O)CO)CC3OC1CC(NCCCC(OC(C)=O)OC(C)=O)C(O)C(C)O1 (stereo partly drawn)
GI50 (MOLT-4 leukemia): 0.000123 µM | GI50 (HOP-92 NSCLC): 0.00024 µM | TGI (HOP-92 NSCLC): 0.0065 µM and 0.000862 µM | GI50 (OVCAR-4 ovarian): < 0.0001 µM | GI50 (M14 melanoma): < 0.0001 µM | GI50 (SF-539 CNS): < 0.0001 µM | TGI (SF-539 CNS): 0.00445 µM and 0.00115 µM | GI50 (SW-620 colon): < 0.0001 µM | TGI (SW-620 colon): > 1 µM | GI50 (KM20L2 colon): < 0.0001 µM | TGI (KM20L2 colon): 0.167 µM

CCN1CCC(O)(c2ccc(O)cc2)C(C(=O)c2ccc(O)cc2)C1 (stereo not drawn)
TGI (MOLT-4 leukemia): 46 µM | TGI (HOP-92 NSCLC): 37.5 µM | TGI (OVCAR-4 ovarian): 68.8 µM | TGI (DU-145 prostate): 60 µM | TGI (M14 melanoma): 36.4 µM | TGI (SW-620 colon): 12.3 µM | TGI (U251 CNS): > 100 µM

CN(C(=O)c1ccc(OCCCC(=O)O)c(Cl)c1Cl)C1CCCC1
TGI (MOLT-4 leukemia): > 100 µM | TGI (A549 NSCLC): > 100 µM | TGI (HOP-92 NSCLC): > 100 µM | TGI (OVCAR-4 ovarian): > 100 µM | TGI (SF-539 CNS): > 100 µM | TGI (SW-620 colon): > 100 µM | TGI (KM20L2 colon): > 100 µM | TGI (U251 CNS): > 100 µM | TGI (CAKI-1 renal): > 100 µM

COC1C(O)C(C)OC(OC2CCC3(C)C(CCC4C3C(O)CC3(C)C(C5=CC(=O)OC5)CCC43O)C2)C1O (stereo not drawn)
TGI (MOLT-4 leukemia): 0.174 µM | TGI (A549 NSCLC): 0.192 µM | TGI (HOP-92 NSCLC): 3.33 µM | TGI (DU-145 prostate): 0.173 µM | TGI (M14 melanoma): 1.02 µM | TGI (BT-549 breast): 0.429 µM | TGI (SF-539 CNS): 0.22 µM | TGI (SW-620 colon): 4.9 µM | TGI (PC-3 prostate): 5.17 µM | TGI (CAKI-1 renal): 0.469 µM

CNC(=O)NS(=O)(=O)c1ccc(C)cc1
TGI (MOLT-4 leukemia): > 100 µM | TGI (A549 NSCLC): > 100 µM | TGI (HOP-92 NSCLC): > 100 µM | TGI (OVCAR-4 ovarian): > 100 µM | TGI (DU-145 prostate): > 100 µM | TGI (M14 melanoma): > 100 µM | TGI (BT-549 breast): > 100 µM | TGI (SF-539 CNS): > 100 µM | TGI (SW-620 colon): > 100 µM | TGI (PC-3 prostate): > 100 µM | TGI (U251 CNS): > 100 µM

CC1=C2C3OC(=O)C(C)C3CCC2(C)C=CC1=Nc1ccccc1 (stereo not drawn)
TGI (MOLT-4 leukemia): > 100 µM | TGI (A549 NSCLC): > 100 µM | TGI (HOP-92 NSCLC): > 100 µM | TGI (OVCAR-4 ovarian): > 100 µM | TGI (SF-539 CNS): > 100 µM | TGI (SW-620 colon): > 100 µM | TGI (KM20L2 colon): > 100 µM | TGI (U251 CNS): > 100 µM

Cc1ccc(-c2cc(-c3ccco3)c(C#N)c(=O)n2C2OC(CO)C(O)C(O)C2O)cc1 (stereo not drawn)
TGI (MOLT-4 leukemia): > 100 µM | TGI (OVCAR-4 ovarian): > 100 µM | TGI (M14 melanoma): > 100 µM | TGI (SW-620 colon): > 100 µM | TGI (KM20L2 colon): > 100 µM | TGI (U251 CNS): > 100 µM
